Measurements as given in PMC5838147, “Modulation of Oral Bioavailability and Metabolism for Closely Related Cyclic Hexapeptides” (International Journal of Peptide Research and Therapeutics, 2017).
In brackets after ≈: the same amount, converted by molar mass. Read-outs that look alike come from different tables or passages of the source. Where a SMILES comes first, the peptide text is derived from it. [ ]: non-standard residue; d: D form. NMeY = CN[C@@H](Cc1ccc(O)cc1)C(=O)O; NMeL = CN[C@@H](CC(C)C)C(=O)O; dNMeL = CN[C@H](CC(C)C)C(=O)O; Abu = CC[C@H](N)C(=O)O

Legend:
[1] = plasma
Procedure: (§1) The values relate to single experiments. […] This has been estimated by looking at independent replicates across the assay dynamic range.
(§2) In order to make predictions of pharmacokinetic properties of these cyclic peptides, further in vitro evaluation was carried out to determine plasma-protein binding (PPB) and metabolic stability in mouse liver microsomes (MLM). […] In order to predict clearance in vivo, evaluation in vitro was assessed in MLM.

[2] = in vitro; settings: mouse, microsomes
Procedure: as §1, §2

[3] = in vitro; settings: dog, MDCK
Procedure: (§3) The values relate to single experiments. For the MDCK assay, the lower limit of quantification (LLOQ) was 5 nM, and for PAMPA 2 nM, respectively. […] This has been estimated by looking at independent replicates across the assay dynamic range.

[4] = Supercritical fluid chromatography (SFC) retention, exposed polarity; type: physicochemical; settings: Chirex 3014 column, reflects exposure of polar groups
Text: Conditions for analytical supercritical fluid chromatography (SFC) were taken from previous publications (Goetz et al. [2014a], [b]). The Pirkle chiral stationary phase Chirex 3014, a silica bonded (S)-valine and (R)-1-(α-naphthyl)ethylamine with a urea linkage, was selected. A mobile phase of 15% methanol in supercritical CO2 enabled adequate separation in combination with a low-slope gradient. High retention times were mitigated by increasing the percentage of methanol in the eluent and the addition of the relatively weak salt pair ammonium formate. In the resulting chromatographic system, differences in retention depend upon hydrophobic interactions, the ability for hydrogen bonding, the presence of dipoles, and van der Waals interactions of the solutes with the stationary phase (Goetz et al. [2014a], [b]).
Next, we applied SFC-analysis to compare calculations related to polar surface area with experimentally derived data. […] Thus, calibrated SFC retention times can be compared to the SAPSA values obtained from molecular dynamics. […] As a result, shielding of polar atoms under SFC conditions is realized most optimally in the Abu derivative (4) leading to a short retention time of 2.7 min. […] However, in this case the best permeability was attributed to the Phe analogue. […] However, most likely in the case of peptide (5), for which the MDCK assay is not aligned with PAMPA and SFC, the low predictability for oral uptake would have excluded this candidate from an in vivo experiment. Taking into account the in vitro profiling, it seems possible to identify cyclic peptides with good permeability and solubility.

[5] = mouse, in vivo; for Vd / clearance: iv, 1 mg/kg; for Tmax: po
Procedure: (§4) For mouse PK on peptides (4) and (5), blood concentrations versus time profiles were obtained from 2 groups of 3 male C57Bl/6 mice. In the intravenous PK group (n = 3), the compound was administered intravenous (i.v.) by bolus injection (5 mL/kg) at a dose of 1 mg/kg, solubilized in N-Methyl-2-pyrrolidone (10%) and blank plasma (90%). For oral PK, another group of 3 male C57Bl/6 mice, a dose of 3 mg/kg was orally applied (dosing volume of 10 mL/kg) as a homogenous suspension of water (99%), Tween80 (0.5%) and methylcellulose (0.5%).
(§5) For both rodents, blood samples (10–50 µL) were collected at 0.08 (i.v. only), 0.25, 0.5, 1, 2, 4, 7, and 24 h after dosing. […] Analyses of parent compound concentrations were carried out in blood using LC-MS/MS. An aliquot of 30 μL was taken and added to 200 μL MeCN (including Glyburide (c = 50 ng/mL) as internal standard) for protein precipitation. Sample analysis was performed on a LC–MS/MS system consisting of an AB SCIEX API 5500 QTrap mass spectrometer equipped with a TurboIonSpray™ interface (Framingham, USA). The MS system was connected to a HTS CTC PAL auto-sampler (Zwingen, Switzerland) and to a Flux Rheos 2200 pump system (Reinach, Switzerland). The supernatants (2 µL) were injected directly onto the LC-MS/MS system for analysis. The test articles and its internal standard were separated with a Phenomenex Kinetex C18 (50 × 2 mm ID, 2.7 µm pore size). A binary gradient with a mobile phase consisting of water (A) and acetonitrile (B) was used for the LC-separation. Both mobile phases (A) and (B) were acidified with 0.1% formic acid. The elution gradient program was as follows: [time (min), (% mobile phase B): (0, 95) (5.8, 85) (5.81, 99) (6.5, 99) (6.51, 95) (8, 95)]. The column temperature was maintained at 50 °C using a column heater. Under these experimental conditions, the LLOQ was 0.4 ng/mL.

[6] = in vivo; settings: male, po
Procedure: as §4, §5

[7] = physchem; settings: pH 6.8, thermodynamic from solid
Procedure: as §3

[8] = rat, in vivo, po, 3 mg/kg
Procedure: (§6) For rat PK, blood concentration versus time profiles were obtained from 3 male Sprague Dawley rats. For intravenous PK, the compound was administered intravenously by bolus injection (0.5 mL/kg) at a dose of 3 mg/kg, solubilized in N-Methyl-2-pyrrolidone (30%) and PEG200 (70%). For oral PK, after a washout period of 48 h, an oral gavage was administered to the same animals at a dose of 3 mg/kg at a dosing volume of 2.5 mL/kg. The oral dose was dispersed in water (99%), Tween80 (0.5%) and methylcellulose (0.5%), forming a homogenous suspension. For both rodents, blood samples (10–50 µL) were collected at 0.08 (i.v. only), 0.25, 0.5, 1, 2, 4, 7, and 24 h after dosing. To investigate the absorption and the impact of pre-systemic metabolism, the model of portal vein cannulation in rats was applied for compounds orally dosed in a cassette. The week before the PK experiments, the rats were surgically prepared with catheter implantation into the right jugular vein (for collection of blood from the systemic circulation) and the hepatic portal vein (for collection of blood from the portal vein, i.e. after intestinal absorption and metabolism and before liver pe-systemic metabolism). After recovery, the rats were orally dosed by gavage (same dose, volume and formulation as described above), and blood samples (50 µL) were collected at 0.25, 0.5, 1, 2, 4, 7, and 24 h concomitantly from the 2 blood vessels. Analyses of parent compound concentrations were carried out in blood using LC-MS/MS. An aliquot of 30 μL was taken and added to 200 μL MeCN (including Glyburide (c = 50 ng/mL) as internal standard) for protein precipitation. Sample analysis was performed on a LC–MS/MS system consisting of an AB SCIEX API 5500 QTrap mass spectrometer equipped with a TurboIonSpray™ interface (Framingham, USA). The MS system was connected to a HTS CTC PAL auto-sampler (Zwingen, Switzerland) and to a Flux Rheos 2200 pump system (Reinach, Switzerland). The supernatants (2 µL) were injected directly onto the LC-MS/MS system for analysis. The test articles and its internal standard were separated with a Phenomenex Kinetex C18 (50 × 2 mm ID, 2.7 µm pore size). A binary gradient with a mobile phase consisting of water (A) and acetonitrile (B) was used for the LC-separation. Both mobile phases (A) and (B) were acidified with 0.1% formic acid. The elution gradient program was as follows: [time (min), (% mobile phase B): (0, 95) (5.8, 85) (5.81, 99) (6.5, 99) (6.51, 95) (8, 95)]. The column temperature was maintained at 50 °C using a column heater. Under these experimental conditions, the LLOQ was 0.4 ng/mL.
(§7) Accordingly, we decided to conduct a hepatic portal vein (H.P.V.) study in Sprague Dawley rats due to the technical difficulties associated with a smaller species like mice. Rats were equipped with double jugular vein and hepatic portal vein cannulation. A standard jugular vein cannulation experiment was run in parallel as a control.

[9] = rat, in vivo, 3 mg/kg; for clearance: iv; for AUC: po
Procedure: as §6, §7

[10] = mouse
Procedure: as §4, §5

[11] = mouse, microsomes
Procedure: as §1, §2

[12] = in vivo, cited from earlier work; for CL Mouse / Vss: iv, 2.1 mg/kg; for Vss / Tmax / T1/2term: mouse; for Tmax: po, 7.1 mg/kg

Row | Compound | fraction unbound [1] | microsomal CLint [2] | Papp [3] | SFC [4] | half-life [5] | Vd [5] | clearance [5] | Tmax ([5]; 3 mg/kg) | bioavailability ([6]; C57BL/6, mouse) | solubility thermodynamic [7] | Log PAMPA | Liver first pass effect [8] | clearance [9] | AUC ([9]; Jugular vein (AuC)) | AUC ([9]; Portal vein (AuC)) | class for in vivo CL in mice [10] | clearance in the MLM assay (in words) [11] | CL Mouse [12] | Vss [12] | Tmax [12] | also measured
1 | CC[C@@H]1NC(=O)[C@H]2CCCN2C(=O)[C@H](CC(C)C)NC(=O)[C@H](CC(C)C)N(C)C(=O)[C@@H](CC(C)C)N(C)C(=O)[C@H](CC(C)C)NC1=O [(4), [Abu-Leu-NMe-D-Leu-NMe-Leu-Leu-D-Pro]] (cyclo([Abu]L[dNMeL][NMeL]L[dP])) | < 0.01 | 324 µL/min/mg | 4 ×10⁻⁶ cm/s | 2.7 min | 48 ± 12 min | 2.1 ± 0.2 L/kg | 49 ± 14 mL/min/kg | 18 min | 39 ± 4% | 602 µM (≈ 399 µg/mL) | −4.3 | 11% | 41 mL/min/kg | 1.66 µM·h | 1.84 µM·h | medium CL | very high CL | – | – | – | –
2 | CC(C)C[C@@H]1NC(=O)[C@H](Cc2ccc(O)cc2)NC(=O)[C@H]2CCCN2C(=O)[C@H](CC(C)C)NC(=O)[C@H](CC(C)C)NC(=O)[C@@H](CC(C)C)NC1=O [(1), [Tyr-Leu-D-Leu-Leu-Leu-D-Pro-]] (cyclo(LL[dP]YL[dL])) | 0.08 | 95 µL/min/mg | – | 4.8 min | – | – | – | – | – | 151 µM (≈ 108 µg/mL) | – | – | – | – | – | high CL | – | 82 ± 15 mL/min/kg | 0.8 ± 0.2 L/kg | 36 ± 18 min | T1/2term [12]: 12 ± 0 min
3 | CC(C)C[C@@H]1NC(=O)[C@H](Cc2ccc(O)cc2)N(C)C(=O)[C@H]2CCCN2C(=O)[C@H](CC(C)C)NC(=O)[C@H](CC(C)C)N(C)C(=O)[C@@H](CC(C)C)N(C)C1=O [(2), [NMe-Tyr-Leu-NMe-D-Leu-NMe-Leu-Leu-D-Pro]] (cyclo(L[dNMeL][NMeL]L[dP][NMeY])) | < 0.01 | 63 µL/min/mg | – | 4.1 min | – | – | – | – | – | 26 µM (≈ 19.6 µg/mL) | – | – | – | – | – | low CL | medium clearance | 1 ± 0 mL/min/kg | 0.4 ± 0.0 L/kg | 228 ± 186 min | T1/2term [12]: 1360 ± 324 min
4 | CC(C)C[C@@H]1NC(=O)[C@H](C)NC(=O)[C@H]2CCCN2C(=O)[C@H](CC(C)C)NC(=O)[C@H](CC(C)C)N(C)C(=O)[C@@H](CC(C)C)N(C)C1=O [(5), [Ala-Leu-NMe-D-Leu-NMe-Leu-Leu-D-Pro]] (cyclo(AL[dNMeL][NMeL]L[dP])) | < 0.01 | 654 µL/min/mg | 2.7 ×10⁻⁶ cm/s | 2.8 min | 24 ± 6 min | 2.8 ± 0.3 L/kg | 105 ± 26 mL/min/kg | 18 min | 23 ± 4% | > 1000 µM | −4.6 | 77% | 70 mL/min/kg | 0.104 µM·h | 0.449 µM·h | high CL | very high CL | – | – | – | –
5 | CC(C)C[C@@H]1NC(=O)[C@H](Cc2ccccc2)NC(=O)[C@H]2CCCN2C(=O)[C@H](CC(C)C)NC(=O)[C@H](CC(C)C)N(C)C(=O)[C@@H](CC(C)C)N(C)C1=O [(3), [Phe-Leu-NMe-D-Leu-NMe-Leu-Leu-D-Pro]] (cyclo(FL[dNMeL][NMeL]L[dP])) | < 0.01 | 488 µL/min/mg | 11.6 ×10⁻⁶ cm/s | 2.9 min | 330 ± 24 min | 0.6 ± 0.1 L/kg | 2 mL/min/kg | – | – | 30 µM (≈ 21.7 µg/mL) | −4.0 | – | – | – | – | low CL | very high CL | – | – | – | Tmax ([5]; 7.5 mg/kg): 18 ± 6 min; bioavailability ([6]; OF1, mouse): 7 ± 2%
